Drawing on US20250388565A1, “ESTROGEN RECEPTOR ALPHA DEGRADERS AND METHODS OF USE THEREOF” (Relay Therapeutics, Inc., priority 2022, published 2025), this text covers DC50 for 26 compounds.

What is called DC50 is the concentration giving 50% degradation.

The test concerns the target T1, ERα protein (HiBiT-tagged) in ESR1_HiBiT KI MCF7 cells (Homo sapiens, UniProt P03372).
T1 sequence (P03372 1-595): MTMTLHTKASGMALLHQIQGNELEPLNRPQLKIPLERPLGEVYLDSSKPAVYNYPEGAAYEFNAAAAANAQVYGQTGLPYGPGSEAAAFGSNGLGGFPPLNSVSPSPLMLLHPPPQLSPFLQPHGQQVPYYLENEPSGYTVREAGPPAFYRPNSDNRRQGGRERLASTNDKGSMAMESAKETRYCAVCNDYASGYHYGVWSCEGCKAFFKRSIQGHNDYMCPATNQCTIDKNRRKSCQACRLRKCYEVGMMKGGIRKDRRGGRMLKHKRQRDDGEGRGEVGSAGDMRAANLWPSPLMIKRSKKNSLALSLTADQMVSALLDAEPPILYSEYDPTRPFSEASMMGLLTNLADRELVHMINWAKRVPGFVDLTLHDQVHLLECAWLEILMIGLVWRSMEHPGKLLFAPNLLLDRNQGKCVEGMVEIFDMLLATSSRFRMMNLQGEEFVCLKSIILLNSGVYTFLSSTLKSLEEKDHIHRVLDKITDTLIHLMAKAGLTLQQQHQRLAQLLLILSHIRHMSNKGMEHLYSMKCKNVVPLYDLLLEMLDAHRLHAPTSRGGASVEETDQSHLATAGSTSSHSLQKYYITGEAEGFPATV
Put plainly: Nano Glo HiBiT Lytic Degradation Assay. Format: cell-based. To be noted: 6 hours with compound, 14-point dose response 1:3, bell-shape curve fit, half-maximal effect of first Hill model, read-out: MCF7 ESR1 HiBiT - (DC50). In outline:
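ESR1_HiBiT knock-in MCF7 cells were seeded 24 h before treatment, then exposed to compounds for 6 h at 37° C (14-point 1:3 curves, 10 mM top stock, 0.1% DMSO final, duplicates). HiBiT-ERα was read by lytic LgBiT luminescence, background-subtracted and normalized to DMSO. DC50 was taken from the half-maximal point of the first Hill component of a bell-shaped fit.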
Consider `O=C1CC[C@H](N2Cc3cc(N4CCN(CC5CCN(c6ccc([C@@H]7c8ccc(O)cc8C(F)(F)C[C@@H]7c7ccc(C(F)(F)F)cc7)cc6)CC5)CC4)ccc3C2=O)C(=O)N1` [Compound I-329, (S)-3-(5-(4-((1-(4-((1R,2S)-4,4-difluoro-6-hydroxy-2-(4-(trifluoromethyl)phenyl)-1,2,3,4-tetrahydronaphthalen-1-yl)phenyl)piperidin-4-yl)methyl)piperazin-1-yl)-1-oxoisoindolin-2-yl)piperidine-2,6-dione], for which the DC50 came to 0.92 nM.

Consider `C[C@@H]1O[C@@H](C2CCCCC2)[C@H](c2ccc(N3CCC(CN4CCN(c5ccc6c(c5)CN([C@H]5CCC(=O)NC5=O)C6=O)CC4)CC3)cc2)c2ccc(O)cc21` (single isomer, unassigned) [Compound I-254], for which the DC50 came to 41 nM. On to `O=C1CC[C@H](N2Cc3cc(N4CCN(CC5CCN(c6cc(F)c(C7=C(c8ccccc8)CCc8cc(O)ccc87)c(F)c6)CC5)CC4)ccc3C2=O)C(=O)N1` [Compound I-10, (S)-3-(5-(4-((1-(3,5-difluoro-4-(6-hydroxy-2-phenyl-3,4-dihydronaphthalen-1-yl)phenyl)piperidin-4-yl)methyl)piperazin-1-yl)-1-oxoisoindolin-2-yl)piperidine-2,6-dione], for which the DC50 stood at 16 nM. In the case of `O=C1CC[C@H](N2Cc3cc(N4CCN(CC5CCN(c6ccc([C@H]7c8ccc(O)cc8CO[C@H]7c7ccc8c(c7)CC8)cc6)CC5)CC4)ccc3C2=O)C(=O)N1` (single isomer, unassigned) [Compound I-364], the DC50 was no less than 10000 nM. Consider `O=C1CC[C@@H](c2ccc(N3CCC4(CCN(CC5CCN(c6ccc([C@@H]7c8ccc(O)cc8CO[C@@H]7c7ccccc7)cc6)CC5)C4)CC3)cc2)C(=O)N1` (single isomer, unassigned) [Compound I-390], for which the DC50 is 22 nM. Regarding `O=C1CC[C@H](N2Cc3cc(N4C[C@@H]5C[C@H]4CN5CC4CCN(c5ccc([C@@H]6c7ccc(O)cc7CC[C@@H]6c6ccccc6)cc5)CC4)ccc3C2=O)C(=O)N1` [II-7], the DC50 is no less than 10000 nM. For the compound `C[C@@H](C1CCN(c2ccc([C@@H]3c4ccc(O)cc4CC[C@@H]3c3ccccc3)cc2)CC1)N1CCN(c2ccc3c(c2)CN(C2CCC(=O)NC2=O)C3=O)CC1` (single isomer, unassigned) [II-70], the DC50 is 5 nM.

Take `C[C@@H]1CN(CC2CCN(c3ccc([C@@H]4c5ccc(O)cc5CC[C@@H]4c4ccccc4)cc3)CC2)CCN1c1ccc2c(c1)CN([C@H]1CCC(=O)NC1=O)C2=O` (single isomer, unassigned) [II-3]: the DC50 worked out at 6 nM.

As to `O=C1CC[C@H](N2Cc3cc(N4CCN(CC5CCN(c6ccc([C@H]7c8ccc(O)cc8CC[C@@]78CCCc7ccccc78)cc6)CC5)CC4)ccc3C2=O)C(=O)N1` (single isomer, unassigned) [Compound I-266], the DC50 was 17 nM.

Regarding `C[C@H]1CN(CC2CCN(c3ccc([C@@H]4c5ccc(O)cc5CC[C@@H]4c4ccccc4)cc3)CC2)CCN1c1ccc2c(c1)CN([C@H]1CCC(=O)NC1=O)C2=O` (single isomer, unassigned) [II-10], the DC50 came to 5 nM. `COc1cc(N2CCC(CN3CCN(c4ccc5c(c4)CN([C@H]4CCC(=O)NC4=O)C5=O)CC3)CC2)ccc1[C@@H]1c2ccc(O)cc2CC[C@@H]1C1CCCCC1` [Compound I-152, (S)-3-(5-(4-((1-(4-((1S,2R)-2-cyclohexyl-6-hydroxy-1,2,3,4-tetrahydronaphthalen-1-yl)-3-methoxyphenyl)piperidin-4-yl)methyl)piperazin-1-yl)-1-oxoisoindolin-2-yl)piperidine-2,6-dione]: the DC50 was 1.43 nM. Consider `Cc1ccc([C@@H]2OCc3cc(O)ccc3[C@@H]2c2ccc(N3CCC(CN4CCN(c5ccc6c(c5)CN([C@H]5CCC(=O)NC5=O)C6=O)CC4)CC3)cc2)cc1F` (single isomer, unassigned) [Compound I-356], for which the DC50 amounted to 54 nM.

For the compound `CC(C)C[C@H]1OCc2cc(O)ccc2[C@@H]1c1ccc(N2CCC(CN3CCN(c4ccc5c(c4)CN([C@H]4CCC(=O)NC4=O)C5=O)CC3)CC2)cc1` (single isomer, unassigned) [Compound I-223], the DC50 came out at 10 nM. In the case of `O=C1CC[C@H](N2Cc3cc(N4CCN(CC5CCN(c6ccc([C@@H]7c8ccc(O)c(Cl)c8CC[C@@H]7c7ccccc7)cc6)CC5)CC4)ccc3C2=O)C(=O)N1` [II-65], the DC50 was determined as 4 nM. As for `O=C1CCC(c2ccc(N3CCN(CC4CCN(c5ccc([C@H]6c7ccc(O)cc7CC[C@H]6c6ccccc6)cc5)CC4)CC3)cc2)C(=O)N1` (stereo partly drawn) [Compound I-11, 3-[4-[4-[[1-[4-[(1S,2R)-6-hydroxy-2-phenyl-tetralin-1-yl]phenyl]-4-piperidyl]methyl]piperazin-1-yl]phenyl]piperidine-2,6-dione], the DC50 was no less than 10000 nM. With `CC(C)C[C@@H]1OCc2cc(O)ccc2[C@@H]1c1ccc(N2CCC(CN3CCN(c4ccc5c(c4)CN([C@H]4CCC(=O)NC4=O)C5=O)CC3)CC2)cc1` (single isomer, unassigned) [Compound I-221] the figure was no less than 10000 nM; with `Cc1cc(F)c([C@H]2CC(F)(F)c3cc(O)ccc3[C@H]2c2ccc(N3CCC(CN4CCN(c5ccc6c(c5)CN([C@H]5CCC(=O)NC5=O)C6=O)CC4)CC3)cc2)cc1F` (single isomer, unassigned) [Compound I-324], 0.56 nM. Take `O=C1CC[C@H](N2Cc3cc(N4CCN(CC5CCN(c6ccc([C@@H]7c8ccc(O)cc8C(F)(F)C[C@@H]7c7ccccc7)cn6)CC5)CC4)ccc3C2=O)C(=O)N1` [Compound I-202, (3S)-3-[5-[4-[[1-[5-[(1S,2S)-4,4-difluoro-6-hydroxy-2-phenyl-tetralin-1-yl]-2-pyridyl]-4-piperidyl]methyl]piperazin-1-yl]-1-oxo-isoindolin-2-yl]piperidine-2,6-dione]: the DC50 stood at 0.3 nM. Turning to `COc1cc(N2CCC(CN3CCN(c4ccc5c(c4)CN([C@H]4CCC(=O)NC4=O)C5=O)CC3)CC2)ccc1[C@@H]1c2ccc(O)cc2CC[C@@H]1c1ccccc1` [Compound I-144, (S)-3-(5-(4-((1-(4-((1S,2S)-6-hydroxy-2-phenyl-1,2,3,4-tetrahydronaphthalen-1-yl)-3-methoxyphenyl)piperidin-4-yl)methyl)piperazin-1-yl)-1-oxoisoindolin-2-yl)piperidine-2,6-dione], the DC50 worked out at 0.37 nM. With `O=C1CC[C@@H](N2Cc3cc(N4CCC(CN5CCC(n6cc([C@@H]7c8ccc(O)cc8CC[C@@H]7c7ccccc7)cn6)CC5)CC4)ccc3C2=O)C(=O)N1` (single isomer, unassigned) [Compound I-48] the figure was no less than 10000 nM; with `O=C1CCC(N2Cc3cc(N4CCN(CC5CCN(c6ccc([C@@H]7c8ccc(O)cc8CC[C@@H]7c7ccccc7)cc6)CC5)CC4)c(F)cc3C2=O)C(=O)N1` (single isomer, unassigned) [II-19], no less than 10000 nM. With `O=C1CC[C@H](N2Cc3cc(N4CCN(CC5CCN(c6ccc([C@@H]7c8ccc(O)cc8CC[C@@H]7c7cccc8c7CCC8)cc6)CC5)CC4)ccc3C2=O)C(=O)N1` (single isomer, unassigned) [Compound I-410] the figure was no less than 10000 nM.

As for `N#Cc1ccc2c(c1)CC[C@H](c1ccccc1)[C@@H]2c1ccc(N2CCC(CN3CCN(c4ccc5c(c4)CN([C@H]4CCC(=O)NC4=O)C5=O)CC3)CC2)cc1` [Compound I-49, (5R,6S)-5-(4-(4-((4-(2-((S)-2,6-dioxopiperidin-3-yl)-1-oxoisoindolin-5-yl)piperazin-1-yl)methyl)piperidin-1-yl)phenyl)-6-phenyl-5,6,7,8-tetrahydronaphthalene-2-carbonitrile], the DC50 is no less than 10000 nM. Regarding `O=C1CC[C@H](N2Cc3cc(N4CCN(CC5CCN(c6ccc([C@@H]7c8ccc(O)cc8CC[C@@H]7c7ccccc7)c(F)c6)CC5)CC4)ccc3C2=O)C(=O)N1` [II-86], the 50% degradation concentration (DC50) came out at 0.61 nM. With `O=C1CC[C@H](N2Cc3cc(N4CCN(CC5CCN(c6ccc([C@H]7c8ccc(O)cc8C(F)(F)C[C@H]7c7ccc(F)c(F)c7)cc6)CC5)CC4)ccc3C2=O)C(=O)N1` [Compound I-315, (S)-3-(5-(4-((1-(4-((1S,2R)-2-(3,4-difluorophenyl)-4,4-difluoro-6-hydroxy-1,2,3,4-tetrahydronaphthalen-1-yl)phenyl)piperidin-4-yl)methyl)piperazin-1-yl)-1-oxoisoindolin-2-yl)piperidine-2,6-dione], the DC50 is no less than 10000 nM. With `O=C1CCC(c2ccc(N3CC[C@]4(CCN(CC5CCN(c6ccc([C@@H]7c8ccc(O)cc8CC[C@@H]7c7ccccc7)cc6)CC5)C4)C3)cc2)C(=O)N1` (single isomer, unassigned) [Compound I-279], the DC50 came out at 16.5 nM.
